Experimental data published in patent US9073916B2, “Prodrug forms of kinase inhibitors and their use in therapy” (AUCKLAND UNISERVICES LIMITED, priority 2009, dated 2015).
Like-named read-outs stand apart in the source and are kept apart here.

Key:
erbB1 [1] = target: T1, erbB1 (Homo sapiens, UniProt P00533); assay: Isolated enzyme inhibition (Invitrogen Z′-LYTE kinase assay); assay type: biochemical; conditions: 10 μM ATP, duplicate
SW620 cells = assay: Cellular growth inhibition (sulforhodamine B); assay type: cell-based, Human; conditions: Table 3
Protocol: (§2) Human A431, BT474, SKBR3, SKOV3, SW620, H1975 and HT29 carcinoma cells in log phase exponential growth in alpha minimal essential media (αMEM) containing 5% fetal bovine serum (FBS), were harvested by trypsinisation (1× trypsin/EDTA, Gibco Brl), counted, and seeded into 96 well plates (Nunc) at cell densities ranging from 800-1500 cells/well. Half of the cell samples were seeded into plates that were pre-equilibrated and held in an anoxic environment (90% N2, 5% H2, 5% CO2, 37° Q Anaerobic chamber, Coy Laboratory Products). […] At the end of this period the anoxic plates were recovered from the anaerobic camber and held under normoxia in a standard CO2 incubator (37° C.) for 20 hours. All plates were washed free of compound and cells were allowed to proliferate for a further 4 days in αMEM containing 5% FBS+antibiotics. Cells were fixed in trichloroacteic acid (30 min), washed and stained with sulforhodamine B (SRB, 60 min) prior to washing in acidified water. SRB was solubilised and absorption read at 450 nm to calculate cell densities. Inhibition of proliferation was calculated relative to untreated control wells.

[2] = Pulse radiolysis (E(1) and fragmentation rate); assay type: physicochemical; conditions: for kfrag. (fragmentation rate constant upon 1-electron reduction): benzyl-type radical formation; for E (1)/V (one-electron reduction potential): determined against methylviologen
A431 xenografts = assay: In vivo efficacy in A431 xenografts
Protocol: (§1) Specific pathogen-free homozygous female CD-1 nude mice (Charles River Laboratories, Wilmington, Mass.) were inoculated subcutaneously with a single cell suspension of A431 cells (5×10^6 cells/100 pt; right flank). When A431 tumour xenografts were established (typically 6-10 days) mice were randomized to treatment groups. All compounds were prepared in lactate buffer (pH4). Mice were dosed by intraperitoneal injection (0.01-0.03 ml/g) using the stated schedules and dose levels. Tumour size and body weights were measured at regular intervals. Tumour volume was calculated as π (length×width^2)/6. […] Differences in RTV^4 were tested for statistical difference by Mann Whitney U test using SigmaStat v3.5.

SKOV3 xenografts = assay: In vivo efficacy in SKOV3 xenografts; set-up: species or system mice
Protocol: as §1, with “NIH-III” for “CD-1”, “SKOV3” for “A431”, “(1×10^7” for “(5×10^6”, “μL;” for “pt;”, “50-65” for “6-10”
as §1, with “NIH-III” for “CD-1”, “SKOV3” for “A431”, “(1×10^7” for “(5×10^6”, “μL;” for “pt;”, “50-65” for “6-10”, “Compounds 42 and 161” for “All compounds”

Solubility by HPLC = conditions: α-MEM cell culture medium
A431 cells = assay: Cellular growth inhibition (sulforhodamine B)
erbB1 [3] = target: T1, erbB1; assay: Inhibition of erbB1 autophosphorylation in EGF-stimulated intact A431 cells (Western blot)
H1975 cells = assay: Cellular growth inhibition (sulforhodamine B); assay type: cell-based, Human; conditions: Table 9; for IC50: Homo sapiens, NCI-H1975
Protocol: as §2
Human A431, H1975 and SKOV3 carcinoma cells in log phase exponential growth in alpha minimal essential media (αMEM) containing 5% fetal bovine serum (FBS), were harvested by trypsinisation (1× trypsin/EDTA, Gibco Brl), counted, and seeded into 96 well plates (Nunc) at cell densities ranging from 800-1500 cells/well. Half of the cell samples were seeded into plates that were pre-equilibrated and held in an anoxic environment (90% N2, 5% H2, 5% CO2, 37° C.; Anaerobic chamber, Coy Laboratory Products). […] At the end of this period the anoxic plates were recovered from the anaerobic camber and held under normoxia in a standard CO2 incubator (37° C.) for 20 hours. All plates were washed free of compound and cells were allowed to proliferate for a further 4 days in αMEM containing 5% FBS+antibiotics. Cells were fixed in trichloroacteic acid (30 min), washed and stained with sulforhodamine B (SRB, 60 min) prior to washing in acidified water. SRB was solubilised and absorption read at 450 nm to calculate cell densities. Inhibition of proliferation was calculated relative to untreated control wells.
They were then washed free of drug and incubated for a further 4 days, before being stained for cell survival with sulforhodamine B.

T1 sequence (P00533 25-1210): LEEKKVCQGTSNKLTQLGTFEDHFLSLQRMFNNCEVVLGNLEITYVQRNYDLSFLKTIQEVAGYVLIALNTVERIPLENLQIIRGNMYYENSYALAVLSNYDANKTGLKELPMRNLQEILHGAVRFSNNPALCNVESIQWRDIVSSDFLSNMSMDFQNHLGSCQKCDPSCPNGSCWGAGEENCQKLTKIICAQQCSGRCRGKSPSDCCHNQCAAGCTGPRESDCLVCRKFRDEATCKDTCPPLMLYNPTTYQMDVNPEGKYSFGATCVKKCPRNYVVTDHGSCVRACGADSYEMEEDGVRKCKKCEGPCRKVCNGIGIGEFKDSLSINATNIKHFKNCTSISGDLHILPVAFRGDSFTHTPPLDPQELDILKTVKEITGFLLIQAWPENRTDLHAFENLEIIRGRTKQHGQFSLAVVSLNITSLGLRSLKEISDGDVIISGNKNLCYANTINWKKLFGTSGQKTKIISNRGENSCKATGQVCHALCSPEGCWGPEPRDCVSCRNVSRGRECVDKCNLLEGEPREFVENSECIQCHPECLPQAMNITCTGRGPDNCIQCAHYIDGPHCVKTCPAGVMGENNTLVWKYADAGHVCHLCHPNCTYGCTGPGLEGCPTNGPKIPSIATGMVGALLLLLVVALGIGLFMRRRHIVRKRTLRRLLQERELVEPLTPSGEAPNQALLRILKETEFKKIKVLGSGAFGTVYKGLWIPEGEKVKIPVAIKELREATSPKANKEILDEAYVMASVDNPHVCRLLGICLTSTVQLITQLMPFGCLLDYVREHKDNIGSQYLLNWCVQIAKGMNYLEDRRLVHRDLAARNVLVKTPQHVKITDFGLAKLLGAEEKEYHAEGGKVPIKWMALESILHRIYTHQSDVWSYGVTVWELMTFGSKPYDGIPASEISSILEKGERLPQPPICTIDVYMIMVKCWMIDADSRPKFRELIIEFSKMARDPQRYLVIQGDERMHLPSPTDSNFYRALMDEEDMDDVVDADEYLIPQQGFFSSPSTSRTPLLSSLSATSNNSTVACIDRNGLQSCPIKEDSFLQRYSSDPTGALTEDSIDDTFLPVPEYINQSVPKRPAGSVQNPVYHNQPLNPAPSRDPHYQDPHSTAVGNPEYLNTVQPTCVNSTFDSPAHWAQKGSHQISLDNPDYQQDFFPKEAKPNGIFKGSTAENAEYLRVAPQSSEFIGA

With `Cn1cnc([N+](=O)[O-])c1C[N+](C)(C)C/C=C/C(=O)Nc1ccc2ncnc(Nc3cccc(Br)c3)c2c1.[Br-]` [Compound 20, (2E)-4-{[4-(3-bromoanilino)-6-quinazolinyl]amino}-N,N-dimethyl-N-[(1-methyl-4-nitro-1H-imidazol-5-yl)methyl]-4-oxo-2-buten-1-ammonium bromide] the IC50 (erbB1 [1]) was 0.47 nM, the “SW620 Deact.” value (SW620 cells) was 18 fold and the “SW620 HCR” value (SW620 cells) was 3.1 fold. The IC50 (SW620 cells; 24 hour exposure entirely oxic, read-out: Cellular Growth Inhibition IC50 SW620 Oxic) was 63300 nM, the IC50 (SW620 cells; first 4 hours anoxic, read-out: Cellular Growth Inhibition IC50 SW620 Anoxic) was 20200 nM and the “kfrag. (fragmentation rate constant upon 1-electron reduction)” value [2] was 130 ± 10 s⁻¹. The “E (1)/V (one-electron reduction potential)” value [2] was −0.427 V, the “efficacy by growth delay” value (A431 xenografts; A431 xenografts, equitoxic dose (63% of single dose MTD), q4dx6, IP) was “superior efficacy to effector 11” and the “tumour growth inhibition (TGI)” value (A431 xenografts; A431 xenografts, q4dx3 at MTD, IP in lactate buffer) was greater than 210%. For the same molecule, the deaths (A431 xenografts; A431 xenografts, q4dx6, 63% of single dose MTD) was 0/12, the “efficacy by growth delay” value (SKOV3 xenografts; 133 (20) and 56 (11) umol/kg/dose, q3dx6, IP) was “superior efficacy to effector 11” and the deaths (SKOV3 xenografts; q3dx6, 133 (20) and 56 (11) umol/kg/dose) was 0/7. For the same molecule, the solubility (Solubility by HPLC) was 1112 µM, the IC50 (A431 cells; read-out: Cellular Growth Inhibition IC50 A431 Anoxic, Table 3, first 4 hours of 24 hour exposure anoxic) was 78 nM and the IC50 (A431 cells; read-out: Cellular Growth Inhibition IC50 A431 Oxic, Table 3, 24 hour exposure entirely oxic) was 2090 nM. For the same molecule, the IC50 (erbB1 [3]; read-out: cellular erbB1 autophosphorylation IC50, intact A431 cells) was 555 nM.
In the case of `Cn1cnc([N+](=O)[O-])c1C[N+](C)(C)C/C=C/C(=O)Nc1cc2c(Nc3ccc(F)c(Br)c3)ncnc2cn1` [Compound 42, (2E)-4-{[4-(3-bromo-4-fluoroanilino)pyrido[3,4-d]pyrimidin-6-yl]amino}-N,N-dimethyl-N-[(1-methyl-4-nitro-1H-imidazol-5-yl)methyl]-4-oxo-2-buten-1-ammonium bromide], the IC50 (H1975 cells; 24 hour exposure oxic, read-out: Cellular Growth Inhibition IC50 H1975 Oxic) is reported as 37200 nM, the IC50 (H1975 cells; first 4 hours anoxic, read-out: Cellular Growth Inhibition IC50 H1975 Anoxic) is reported as 4220 nM and the “H1975 Deact.” value (H1975 cells) is reported as 30 fold. The “H1975 HCR” value (H1975 cells) was 10.8 fold, the “kfrag. (fragmentation rate constant upon 1-electron reduction)” value [2] was 50 ± 10 s⁻¹ and the “E (1)/V (one-electron reduction potential)” value [2] was −0.425±0.008 V. For the same molecule, the “tumour growth inhibition (TGI)” value (A431 xenografts; large A431 xenografts, 20 mg/kg/dose, q3dx8, IP) was 400%, the “tumour growth inhibition (TGI)” value (A431 xenografts; large A431 xenografts, 40 mg/kg/dose, q3dx8, IP) was 800% and the “tumour growth inhibition (TGI)” value (A431 xenografts; large A431 xenografts, 60 mg/kg/dose, q3dx8, IP) was 786%. The “tumour growth inhibition (TGI)” value (A431 xenografts; large A431 xenografts, 80 mg/kg/dose, q3dx8, IP) was 843%, the “efficacy by growth delay” value (SKOV3 xenografts; 100 (42) and 31.6 (161) μmol/kg/dose, q3dx9, IP) was “superior efficacy to compound 161” and the deaths (SKOV3 xenografts; q3dx9, 100 (42) and 31.6 (161) μmol/kg/dose) was 0/7. The IC50 (A431 cells; Homo sapiens, A-431, 4 h, read-out: Cellular Growth Inhibition IC50 A431 Anoxic) was 75 nM, the IC50 (A431 cells; Homo sapiens, A-431, 24 h, read-out: Cellular Growth Inhibition IC50 A431 Oxic) was 1690 nM and the “A431 Deact.” value (A431 cells; Table 9) was 56 fold. The “A431 HCR” value (A431 cells; Table 9) was 60.0 fold, the IC50 (erbB1 [3]) was 411 nM and the “Deact. erbB1 (fold reduction in cellular inhibition relative to the parent kinase inhibitor)” value (erbB1 [3]; Table 8, A431 cells) was 82 fold.
